Laboratory results as given in patent US20120101261A1, “USE OF MULTI-KINASE INHIBITORS IN THE TREATMENT OF VASCULAR HYPERPERMEABILITY” (Fondazione IRCCS Istituto Nazionale Dei Tumori, priority 2009, published 2012).

What was measured:
[1] = tested on: tail lymphedema in C57BL/6 mice; test: Mouse tail model of lymphedema; assay type: in vivo; conditions: 60 mg/kg/die days 5 to 9 and 12 to 16
Protocol: Six- to eight-wk-old female C57BL/6 mice with body weight of 20 to 25 g, were purchased from Charles River (Milano, Italy, EU). Mice were housed under standard laboratory conditions according to the Applicant's institutional guidelines. Animal experiments were performed according to the Italian laws (Law Decree 116/92 and following additions), which enforce the EU […] Directive, and were approved by the institutional Ethical Committee for Animal Experimentation.
To create lymphedema, a circumferential incision was made through the dermis close to the tail base to sever the dermal lymphatic vessels. The edges of this incision were then pushed apart, thereby severing the deeper draining lymphatics, preventing superficial bleeding, and creating a 2-3 mm gap to delay wound closure.
Sorafenib dosing used in mice experiments is roughly equivalent to a 300 mg daily dosing in humans.
Mice were than randomly assigned to receive two cycles of sorafenib (60 mg/kg/die) from days 5 to 9 and 12 to 16 or control vehicle.

[2] = tested on: vascular permeability in mouse tail; test: Miles vascular permeability assay (Evans blue) in mice with surgically induced tail lymphedema; assay type: in vivo
Protocol: A Miles vascular permeability assay using intrasplenic injection of the blue dye Evans blue was perfomed in untreated and sorafenib-treated mice bearing a surgical-induced tail lymphedema.
Six- to eight-wk-old female C57BL/6 mice with body weight of 20 to 25 g, were used in this experiment. Tail lymphedema was generated by a circumferential incision through the dermis close to the tail base, as described above. […] On day 16, mice received the last dose of sorafenib and 2 hrs later were injected through the spleen with 0.1 ml of 1% Evan's blue in PBS. After 2 h, the mice were exsanguinated under anesthesia, and were perfused with heparin in PBS until lungs and livers were blanched. The distal portion of the tail was then removed and placed in formamide at 37° C. overnight to extract Evan's blue dye. […]

acquired arm lymphedema = test: Pilot clinical study in breast cancer patients with acquired arm lymphedema; assay type: in vivo, human; conditions: oral 200 mg daily, up to 8 weeks, ten patients
Description: To further evaluate in a clinical setting the anti-lymphedema activity of multi-kinase inhibitor sorafenib, the Applicants performed a pilot study on a compassionate need basis to evaluate the toxicity and the anti-lymphedema effects of multi-kinase inhibitor sorafenib in consenting breast cancer patients with acquired arm lymphedema occurring following surgical dissection of, and/or radiotherapy on axillary lymphnodes. No other treatment options of proven efficacy was available for these patients.
Patients were administered with oral sorafenib at a dose of 200 mg daily.
Therapy was given for a maximum of 8 weeks or until lymphedema progression or appearance of clinical significant toxicity probably related to multi-kinase inhibitor sorafenib.
Within a two-month period of time ten breast cancer patients with acquired lymphedema of the arm were treated with multi-kinase inhibitor sorafenib.
At the end of treatment, the efficacy of multi-kinase inhibitor sorafenib was evaluated as percentage reduction of total arm circumference as compared with pre-treatment values. The median reduction of total arm circumference was 60% (range, 30 to 100). Lymphedema reduction was associated with a 5-10% reduction of body weight.

[3] = tested on: severe bilateral leg lymphedema; test: Observation of leg lymphedema in a Hodgkin lymphoma patient in a phase II clinical trial; assay type: in vivo, human; conditions: one Hodgkin lymphoma patient, 800 mg/die, lymphedema from post-radiotherapy compressive lymphatic obstruction
Description: In this patient, lymphedema was due a compressive lymphatic obstruction related to post-radiotherapy sequelae.

## CNC(=O)c1cc(Oc2ccc(NC(=O)Nc3ccc(Cl)c(C(F)(F)F)c3)cc2)ccn1 [sorafenib, Sorafenib]
[1]; day 7 after incision, control peak 63±3 mm on day 15
  mean (±SEM) tail diameter at lymphedema peak: 58±4 mm
[1]; day 20
  resolution of tail lymphedema: complete resolution of lymphedema
[1]; day 20 after incision, control 58±3, P≦0.0003, baseline 36±1
  mean (±SEM) tail diameter on day 20: 36±1 mm
[2]; 60 mg/kg, 384 h
  mean (±SEM) OD620 of Evans blue extracted from the tail: 0.09±0.009
[2]; day 16, 60 mg/kg/die days 5 to 9 and 12 to 16
  reduction of vascular permeability vs untreated mice (extravasated Evans blue): 2 fold
Acquired arm lymphedema; end of treatment
  median reduction of total arm circumference vs pre-treatment: 60%
Acquired arm lymphedema
  reduction of body weight associated with lymphedema reduction: 5-10%
Acquired arm lymphedema; no dose reduction or discontinuation due to toxicity
  tolerability: well tolerated
[3]
  regression of severe bilateral leg lymphedema: complete regression
